# Measurements published in ChEMBL document CHEMBL3046257, “Response of sweet maize (Zea mays L.) hybrids to halosulfuron” (Crop Prot, 2008).
# What was measured:
# Assay type in all cases: organism-based
# Zea mays [1] = test: Toxicity in Zea mays GG214 (maize) assessed as visible injury at 50 g ai/ha applied shortly post-emergence at three to five-leaf stage using backpack sprayer measured after 28 days; settings: in vivo, other, 672 h
# Zea mays [2] = test: Toxicity in Zea mays GG446 (maize) assessed as plant height at 50 g ai/ha applied shortly post-emergence at three to five-leaf stage using backpack sprayer measured after 21 days (reference value: 85 cm); settings: in vivo, other, 504 h
# Zea mays [3] = test: Toxicity in Zea mays Empire (maize) assessed as visible injury at 25 g ai/ha applied shortly post-emergence at three to five-leaf stage using backpack sprayer measured after 7 days; settings: in vivo, other, 168 h
# Zea mays [4] = test: Toxicity in Zea mays GH2547 (maize) assessed as cob size at 25 g ai/ha applied shortly post-emergence at three to five-leaf stage using backpack sprayer (reference value: 315 g); settings: in vivo, other
# Zea mays [5] = test: Toxicity in Zea mays Empire (maize) assessed as visible injury at 50 g ai/ha applied shortly post-emergence at three to five-leaf stage using backpack sprayer measured after 28 days; settings: in vivo, other, 672 h
# Zea mays [6] = test: Toxicity in Zea mays GH2547 (maize) assessed as visible injury at 50 g ai/ha applied shortly post-emergence at three to five-leaf stage using backpack sprayer measured after 14 days; settings: in vivo, other, 336 h
# Zea mays [7] = test: Toxicity in Zea mays GH2684 (maize)assessed as visible injury at 25 g ai/ha applied shortly post-emergence at three to five-leaf stage using backpack sprayer measured after 14 days; settings: in vivo, other, 336 h
# Zea mays [8] = test: Toxicity in Zea mays GH2547 (maize) assessed as visible injury at 25 g ai/ha applied shortly post-emergence at three to five-leaf stage using backpack sprayer measured after 7 days; settings: in vivo, other, 168 h
# Zea mays [9] = test: Toxicity in Zea mays Empire (maize) assessed as plant height at 50 g ai/ha applied shortly post-emergence at three to five-leaf stage using backpack sprayer measured after 21 days (Rvb =73 cm); settings: in vivo, other, 504 h
# Zea mays [10] = test: Toxicity in Zea mays GG446 (maize) assessed as cob size at 25 g ai/ha applied shortly post-emergence at three to five-leaf stage using backpack sprayer (reference value: 379 g); settings: in vivo, other
# Zea mays [11] = test: Toxicity in Zea mays Empire (maize) assessed as visible injury at 25 g ai/ha applied shortly post-emergence at three to five-leaf stage using backpack sprayer measured after 14 days; settings: in vivo, other, 336 h
# Zea mays [12] = test: Toxicity in Zea mays GSS9299 (maize) assessed as visible injury at 25 g ai/ha applied shortly post-emergence at three to five-leaf stage using backpack sprayer measured after 28 days; settings: in vivo, other, 672 h
# Zea mays [13] = test: Toxicity in Zea mays GSS9299 (maize) assessed as visible injury at 25 g ai/ha applied shortly post-emergence at three to five-leaf stage using backpack sprayer measured after 14 days; settings: in vivo, other, 336 h
# Zea mays [14] = test: Toxicity in Zea mays GH2041 (maize) assessed as visible injury at 50 g ai/ha applied shortly post-emergence at three to five-leaf stage using backpack sprayer measured after 14 days; settings: in vivo, other, 336 h
# Zea mays [15] = test: Toxicity in Zea mays GG214 (maize) assessed as cob size at 25 g ai/ha applied shortly post-emergence at three to five-leaf stage using backpack sprayer (reference value: 292 g); settings: in vivo, other
# Zea mays [16] = test: Toxicity in Zea mays GH2684 (maize) assessed as visible injury at 50 g ai/ha applied shortly post-emergence at three to five-leaf stage using backpack sprayer measured after 7 days; settings: in vivo, other, 168 h
# Zea mays [17] = test: Toxicity in Zea mays GH2041 (maize) assessed as cob size at 25 g ai/ha applied shortly post-emergence at three to five-leaf stage using backpack sprayer (reference value: 285 g); settings: in vivo, other
# Zea mays [18] = test: Toxicity in Zea mays GG446 (maize) assessed as cob size at 50 g ai/ha applied shortly post-emergence at three to five-leaf stage using backpack sprayer (reference value: 379 g); settings: in vivo, other
# Zea mays [19] = test: Toxicity in Zea mays GH2298 (maize) assessed as visible injury at 25 g ai/ha applied shortly post-emergence at three to five-leaf stage using backpack sprayer measured after 28 days; settings: in vivo, other, 672 h
# Zea mays [20] = test: Toxicity in Zea mays GH2684 (maize) assessed as marketable yield at 50 g ai/ha applied shortly post-emergence at three to five-leaf stage using backpack sprayer (reference value: 15.5 T/ha ); settings: in vivo, other
# Zea mays [21] = test: Toxicity in Zea mays GSS9299 (maize) assessed as plant height at 50 g ai/ha applied shortly post-emergence at three to five-leaf stage using backpack sprayer measured after 21 days (Rvb =69 cm); settings: in vivo, other, 504 h
# Zea mays [22] = test: Toxicity in Zea mays GH2041 (maize) assessed as plant height at 25 g ai/ha applied shortly post-emergence at three to five-leaf stage using backpack sprayer measured after 21 days (Rvb =80 cm); settings: in vivo, other, 504 h
# Zea mays [23] = test: Toxicity in Zea mays GH2684 (maize) assessed as marketable yield at 25 g ai/ha applied shortly post-emergence at three to five-leaf stage using backpack sprayer (reference value: 15.5 T/ha ); settings: in vivo, other
# Zea mays [24] = test: Toxicity in Zea mays GH2298 (maize) assessed as visible injury at 25 g ai/ha applied shortly post-emergence at three to five-leaf stage using backpack sprayer measured after 7 days; settings: in vivo, other, 168 h
# Zea mays [25] = test: Toxicity in Zea mays GH2298 (maize) assessed as cob size at 50 g ai/ha applied shortly post-emergence at three to five-leaf stage using backpack sprayer (reference value: 307 g); settings: in vivo, other
# Zea mays [26] = test: Toxicity in Zea mays GG214 (maize) assessed as visible injury at 25 g ai/ha applied shortly post-emergence at three to five-leaf stage using backpack sprayer measured after 28 days; settings: in vivo, other, 672 h
# Zea mays [27] = test: Toxicity in Zea mays GH2298 (maize) assessed as visible injury at 50 g ai/ha applied shortly post-emergence at three to five-leaf stage using backpack sprayer measured after 14 days; settings: in vivo, other, 336 h
# Zea mays [28] = test: Toxicity in Zea mays GH2547 (maize) assessed as visible injury at 50 g ai/ha applied shortly post-emergence at three to five-leaf stage using backpack sprayer measured after 28 days; settings: in vivo, other, 672 h
# Zea mays [29] = test: Toxicity in Zea mays GH2547 (maize) assessed as plant height at 50 g ai/ha applied shortly post-emergence at three to five-leaf stage using backpack sprayer measured after 21 days (Rvb =80 cm); settings: in vivo, other, 504 h
# Zea mays [30] = test: Toxicity in Zea mays GH2547 (maize) assessed as visible injury at 25 g ai/ha applied shortly post-emergence at three to five-leaf stage using backpack sprayer measured after 14 days; settings: in vivo, other, 336 h
# Zea mays [31] = test: Toxicity in Zea mays GH2684 (maize) assessed as cob size at 50 g ai/ha applied shortly post-emergence at three to five-leaf stage using backpack sprayer (reference value: 340 g); settings: in vivo, other
# Zea mays [32] = test: Toxicity in Zea mays GG214 (maize) assessed as cob size at 50 g ai/ha applied shortly post-emergence at three to five-leaf stage using backpack sprayer (reference value: 292 g); settings: in vivo, other
# Zea mays [33] = test: Toxicity in Zea mays GH2298 (maize) assessed as plant height at 50 g ai/ha applied shortly post-emergence at three to five-leaf stage using backpack sprayer measured after 21 days (Rvb =80 cm); settings: in vivo, other, 504 h
smiles,measurement,setting,value
COc1cc(OC)nc(NC(=O)NS(=O)(=O)c2c(C(=O)O)c(Cl)nn2C)n1 [HALOSULFURON],Activity,Zea mays [1],1%
same,Activity,Zea mays [2],82 cm
same,Activity,Zea mays [3],4%
same,Activity,Zea mays [4],310 g
same,Activity,Zea mays [5],1%
same,Activity,Zea mays [6],0%
same,Activity,Zea mays [7],3%
same,Activity,Zea mays [8],1%
same,Activity,Zea mays [9],69 cm
same,Activity,Zea mays [10],370 g
same,Activity,Zea mays [11],3%
same,Activity,Zea mays [12],0%
same,Activity,Zea mays [13],2%
same,Activity,Zea mays [14],2%
same,Activity,Zea mays [15],293 g
same,Activity,Zea mays [16],7%
same,Activity,Zea mays [17],273 g
same,Activity,Zea mays [18],387 g
same,Activity,Zea mays [19],0%
same,Crop_yield,Zea mays [20],15.2 tons/ha
same,Activity,Zea mays [21],68 cm
same,Activity,Zea mays [22],76 cm
same,Crop_yield,Zea mays [23],15.5 tons/ha
same,Activity,Zea mays [24],3%
same,Activity,Zea mays [25],308 g
same,Activity,Zea mays [26],0%
same,Activity,Zea mays [27],4%
same,Activity,Zea mays [28],0%
same,Activity,Zea mays [29],79 cm
same,Activity,Zea mays [30],0%
same,Activity,Zea mays [31],321 g
same,Activity,Zea mays [32],287 g
same,Activity,Zea mays [33],76 cm
